Data on three molecules can be found in patent US10059717B2, “Urea compounds containing 3,4-dihydropyrimido[4,5-D]pyrimidin-2(1H)-one skeleton as protein kinase inhibitors” (KOREA INSTITUTE OF SCIENCE AND TECHNOLOGY, priority 2016, dated 2018).

Assay [1] relates to preclinical leukemia models. Particulars: cited from earlier work.
Assay [2] has as its system cell samples from AML patients with actual NRAS mutants. Particulars: cited from earlier work.
A further assay has as its system U937 (N-Ras WT). In words: Proliferation inhibitory activity, U937. It counts as cell-based. Particulars: Homo sapiens, U-937; U937 (N-Ras WT) cell line; read-out: Proliferation inhibitory efficacy (GI50, μM) U937 (N-Ras WT). How it is done: (§1) GI50 values were calculated by measuring the proliferation inhibitory efficacy of the compounds of the present invention on mt-NRAS (G12D) Ba/F3, U937 (wt-NRAS) and OCI-AML3 (mt-NRAS) cell lines.

The target in another assay is T1, GCK (Homo sapiens, UniProt Q12851).
T1 sequence (Q12851 1-820): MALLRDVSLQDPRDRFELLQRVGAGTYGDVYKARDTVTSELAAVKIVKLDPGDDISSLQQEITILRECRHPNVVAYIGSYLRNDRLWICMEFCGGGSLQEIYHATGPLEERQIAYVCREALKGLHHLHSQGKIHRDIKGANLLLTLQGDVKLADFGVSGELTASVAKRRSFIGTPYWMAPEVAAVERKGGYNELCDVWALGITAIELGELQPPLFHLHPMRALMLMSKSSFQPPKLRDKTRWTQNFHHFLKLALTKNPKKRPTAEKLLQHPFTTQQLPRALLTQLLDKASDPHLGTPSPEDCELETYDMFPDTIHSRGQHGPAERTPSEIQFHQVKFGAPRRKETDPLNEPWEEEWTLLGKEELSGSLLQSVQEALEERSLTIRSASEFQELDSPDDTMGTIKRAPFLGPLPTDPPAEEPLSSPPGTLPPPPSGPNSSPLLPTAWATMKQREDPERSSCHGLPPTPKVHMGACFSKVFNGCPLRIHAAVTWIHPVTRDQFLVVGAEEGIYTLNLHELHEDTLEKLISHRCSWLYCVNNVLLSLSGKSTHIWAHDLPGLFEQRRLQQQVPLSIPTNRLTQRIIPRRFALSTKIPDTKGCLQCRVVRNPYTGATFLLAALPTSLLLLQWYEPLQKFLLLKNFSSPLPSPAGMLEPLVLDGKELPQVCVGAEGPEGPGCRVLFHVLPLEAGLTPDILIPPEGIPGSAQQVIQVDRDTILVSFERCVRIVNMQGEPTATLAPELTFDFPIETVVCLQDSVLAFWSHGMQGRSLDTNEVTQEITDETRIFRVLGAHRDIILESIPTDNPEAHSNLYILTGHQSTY
As to the kind of experiment: GCK kinase inhibitory activity. It counts as biochemical. Particulars: read-out: Kinase inhibitory efficacy, GI50 GCK. The protocol:
(§2) GI50 values were calculated by measuring the inhibitory efficacy of the compounds of the present invention against both GCK and ACK1 kinases.

For another assay, the system named is Ba/F3 (N-Ras G12D). In words: Proliferation inhibitory activity, Ba/F3. Particulars: Mus musculus, BaF3; Ba/F3 (N-Ras G12D) cell line; read-out: Proliferation inhibitory efficacy (GI50, μM) Ba/F3 (N-Ras G12D). The class given is cell-based. The protocol:
as §1

A further assay deals with OCI-AML3 (N-Ras Q61L). In words: Proliferation inhibitory activity, OCI-AML3. The class given is cell-based. As to conditions: Homo sapiens, OCI-AML-3; OCI-AML3 (N-Ras Q61L) cell line; read-out: Proliferation inhibitory efficacy (GI50, μM) OCI-AML3 (N-Ras Q61L). The protocol: as §1
Accordingly, the compounds of the present invention are particularly effective as a therapeutic agent for acute myelogenous leukemia (AML).

The next assay concerns the target ACK1 (Homo sapiens, UniProt Q07912). In words: ACK1 kinase inhibitory activity. It counts as biochemical. Particulars: read-out: Kinase inhibitory efficacy, GI50 ACK1. How it is done:
as §2

Chain of ACK1 (Q07912 whole entry): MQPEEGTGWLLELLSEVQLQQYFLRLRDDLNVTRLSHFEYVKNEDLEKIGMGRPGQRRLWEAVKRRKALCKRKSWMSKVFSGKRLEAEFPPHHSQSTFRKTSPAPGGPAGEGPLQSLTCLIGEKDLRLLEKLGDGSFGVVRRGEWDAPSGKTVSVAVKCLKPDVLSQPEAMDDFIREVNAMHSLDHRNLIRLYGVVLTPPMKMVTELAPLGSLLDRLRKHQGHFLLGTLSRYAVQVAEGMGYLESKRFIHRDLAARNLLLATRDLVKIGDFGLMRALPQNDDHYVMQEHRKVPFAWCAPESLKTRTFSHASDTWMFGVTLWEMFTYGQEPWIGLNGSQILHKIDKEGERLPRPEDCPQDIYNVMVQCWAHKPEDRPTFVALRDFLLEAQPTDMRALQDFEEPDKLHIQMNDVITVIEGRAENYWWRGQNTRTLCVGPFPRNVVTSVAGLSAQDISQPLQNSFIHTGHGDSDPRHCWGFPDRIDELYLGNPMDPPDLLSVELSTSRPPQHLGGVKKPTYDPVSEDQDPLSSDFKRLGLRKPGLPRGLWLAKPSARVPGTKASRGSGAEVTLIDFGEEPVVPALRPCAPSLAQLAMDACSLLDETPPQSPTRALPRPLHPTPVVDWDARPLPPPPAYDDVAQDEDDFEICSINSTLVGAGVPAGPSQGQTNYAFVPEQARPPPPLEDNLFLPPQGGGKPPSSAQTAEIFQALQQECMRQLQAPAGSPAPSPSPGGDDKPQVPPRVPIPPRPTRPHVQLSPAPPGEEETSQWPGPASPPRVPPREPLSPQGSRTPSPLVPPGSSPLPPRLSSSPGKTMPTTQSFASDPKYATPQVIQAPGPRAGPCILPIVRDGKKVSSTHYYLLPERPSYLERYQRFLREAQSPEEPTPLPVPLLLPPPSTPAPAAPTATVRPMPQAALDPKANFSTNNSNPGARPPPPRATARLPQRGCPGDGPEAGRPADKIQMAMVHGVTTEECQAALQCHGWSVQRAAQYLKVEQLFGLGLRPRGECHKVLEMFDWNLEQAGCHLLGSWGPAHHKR

Regarding `Cc1ccc(Nc2ncc3c(n2)N(C)C(=O)N(c2cc(NC(=O)c4cccc(C(F)(F)F)c4)ccc2C)C3)cn1` [GNF 7], the “inhibitory effects in preclinical leukemia models” value in assay [1] is recorded as “inhibitory effects in preclinical leukemia models have been observed”. Also, in assay [2], the “efficacy in cell samples from AML patients” value is “exhibited its efficacy”.
`COc1ccccc1NC(=O)Nc1ccc(C)c(N2Cc3cnc(Nc4ccc(C(=O)NC5CC5)nc4)nc3N(C)C2=O)c1` [Compound No. 16, N-cyclopropyl-5-((6-(5-(3-(2-methoxyphenyl)ureido)-2-methylphenyl)-8-methyl-7-oxo-5,6,7,8-tetrahydropyrimido[4,5-d]pyrimidin-2-yl)amino)picolinamide]: the GI50 is ≥ 5 µM with U937 (N-Ras WT); 100 to 300 nM on GCK; < 0.5 µM in the assay on Ba/F3 (N-Ras G12D); < 0.5 µM with OCI-AML3 (N-Ras Q61L); < 30 nM on ACK1.
Regarding `COc1ccccc1NC(=O)Nc1ccc(C)c(N2Cc3cnc(Nc4ccc(C)nc4)nc3N(C)C2=O)c1` [Compound No. 1, 1-(2-methoxyphenyl)-3-(4-methyl-3-(1-methyl-7-((6-methylpyridin-3-yl)amino)-2-oxo-1,4-dihydropyrimido[4,5-d]pyrimidin-3(2H)-yl)phenyl)urea], the GI50 with U937 (N-Ras WT) is ≥ 5 µM; at GCK, 30 to 100 nM; in the assay with Ba/F3 (N-Ras G12D), < 0.5 µM; in the assay on OCI-AML3 (N-Ras Q61L), < 0.5 µM; on ACK1, < 30 nM.
